# Test results reported in patent US9179678B2, “Substituted [1,2,4]triazoles and substituted tetrazoles as herbicides” (SYNGENTA LIMITED, priority 2012, dated 2015).
# System: Solanum nigrum (SOLNI)
# Experiment: Pre-emergence glasshouse herbicide test
# Assay type: in vivo
# Settings: PRE Application, 1000 g/h, after 13 days
row,SMILES,"percentage damage caused to the plant, SOLNI"
1,CCn1c(=O)c(C(=O)Nc2nnnn2C)cc2cnc(Cl)cc21 [Compound 2.002],4 (4=60-79%)
2,COc1ccc(-n2c(=O)c(C(=O)Nc3nnnn3C)nc3ccccc32)cc1 [Compound 5.009],5 (5=80-100%)
3,Cn1nnnc1NC(=O)c1nc2ccccc2n(-c2ccc(C(F)(F)F)cc2)c1=O [Compound 5.019],5 (5=80-100%)
4,Cn1nnnc1NC(=O)c1nc2ccccc2n(-c2ccc3ccccc3c2)c1=O [Compound 5.031],5 (5=80-100%)
5,Cn1nnnc1NC(=O)c1cc2cccnc2n(C)c1=O [Compound 1.001],2 (2=20-39%)
6,Cc1cccc(-n2c(=O)c(C(=O)Nc3nnnn3C)nc3ccccc32)c1 [Compound 5.011],5 (5=80-100%)

# System: Alopecurus myosuroides (ALOMY)
# Experiment: Pre-emergence glasshouse herbicide test
# Assay type: in vivo
# Settings: PRE Application, 1000 g/h, after 13 days
# Summary of the method: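 This pre-emergence glasshouse test used pots of standard soil sown with ALOMY seed and cultivated for one day under controlled conditions of 24/16° C., 14 hours light and 65% humidity. An aqueous spray from an acetone/water (50:50) formulation with 0.5% Tween 20 was applied. After 13 days of further growth with twice-daily watering, plant damage was rated as a percentage.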
row,SMILES,"percentage damage caused to the plant, ALOMY"
1,CCn1c(=O)c(C(=O)Nc2nnnn2C)cc2cnc(Cl)cc21 [Compound 2.002],1 (1=0-19%)
2,COc1ccc(-n2c(=O)c(C(=O)Nc3nnnn3C)nc3ccccc32)cc1 [Compound 5.009],2 (2=20-39%)
3,Cn1nnnc1NC(=O)c1nc2ccccc2n(-c2ccc(C(F)(F)F)cc2)c1=O [Compound 5.019],4 (4=60-79%)
4,Cn1nnnc1NC(=O)c1nc2ccccc2n(-c2ccc3ccccc3c2)c1=O [Compound 5.031],1 (1=0-19%)
5,Cn1nnnc1NC(=O)c1cc2cccnc2n(C)c1=O [Compound 1.001],1 (1=0-19%)
6,Cc1cccc(-n2c(=O)c(C(=O)Nc3nnnn3C)nc3ccccc32)c1 [Compound 5.011],2 (2=20-39%)

# System: Ipomoea hederacea (IPOHE)
# Experiment: Pre-emergence glasshouse herbicide test
# Assay type: in vivo
# Settings: PRE Application, 1000 g/h, after 13 days
row,SMILES,"percentage damage caused to the plant, IPOHE"
1,CCn1c(=O)c(C(=O)Nc2nnnn2C)cc2cnc(Cl)cc21 [Compound 2.002],3 (3=40-59%)
2,COc1ccc(-n2c(=O)c(C(=O)Nc3nnnn3C)nc3ccccc32)cc1 [Compound 5.009],5 (5=80-100%)
3,Cn1nnnc1NC(=O)c1nc2ccccc2n(-c2ccc(C(F)(F)F)cc2)c1=O [Compound 5.019],5 (5=80-100%)
4,Cn1nnnc1NC(=O)c1nc2ccccc2n(-c2ccc3ccccc3c2)c1=O [Compound 5.031],1 (1=0-19%)
5,Cn1nnnc1NC(=O)c1cc2cccnc2n(C)c1=O [Compound 1.001],1 (1=0-19%)
6,Cc1cccc(-n2c(=O)c(C(=O)Nc3nnnn3C)nc3ccccc32)c1 [Compound 5.011],5 (5=80-100%)

# System: Setaria faberi (SETFA)
# Experiment: Pre-emergence glasshouse herbicide test
# Assay type: in vivo
# Settings: PRE Application, 1000 g/h, after 13 days
row,SMILES,"percentage damage caused to the plant, SETFA"
1,CCn1c(=O)c(C(=O)Nc2nnnn2C)cc2cnc(Cl)cc21 [Compound 2.002],1 (1=0-19%)
2,COc1ccc(-n2c(=O)c(C(=O)Nc3nnnn3C)nc3ccccc32)cc1 [Compound 5.009],1 (1=0-19%)
3,Cn1nnnc1NC(=O)c1nc2ccccc2n(-c2ccc(C(F)(F)F)cc2)c1=O [Compound 5.019],5 (5=80-100%)
4,Cn1nnnc1NC(=O)c1nc2ccccc2n(-c2ccc3ccccc3c2)c1=O [Compound 5.031],1 (1=0-19%)
5,Cn1nnnc1NC(=O)c1cc2cccnc2n(C)c1=O [Compound 1.001],1 (1=0-19%)
6,Cc1cccc(-n2c(=O)c(C(=O)Nc3nnnn3C)nc3ccccc32)c1 [Compound 5.011],4 (4=60-79%)

# System: Echinochloa crus-galli (ECHCG)
# Experiment: Pre-emergence glasshouse herbicide test
# Assay type: in vivo
# Settings: PRE Application, 1000 g/h, after 13 days
row,SMILES,"percentage damage caused to the plant, ECHCG"
1,CCn1c(=O)c(C(=O)Nc2nnnn2C)cc2cnc(Cl)cc21 [Compound 2.002],2 (2=20-39%)
2,COc1ccc(-n2c(=O)c(C(=O)Nc3nnnn3C)nc3ccccc32)cc1 [Compound 5.009],5 (5=80-100%)
3,Cn1nnnc1NC(=O)c1nc2ccccc2n(-c2ccc(C(F)(F)F)cc2)c1=O [Compound 5.019],5 (5=80-100%)
4,Cn1nnnc1NC(=O)c1nc2ccccc2n(-c2ccc3ccccc3c2)c1=O [Compound 5.031],1 (1=0-19%)
5,Cn1nnnc1NC(=O)c1cc2cccnc2n(C)c1=O [Compound 1.001],1 (1=0-19%)
6,Cc1cccc(-n2c(=O)c(C(=O)Nc3nnnn3C)nc3ccccc32)c1 [Compound 5.011],4 (4=60-79%)

# System: Amaranthus retoflexus (AMARE)
# Experiment: Pre-emergence glasshouse herbicide test
# Assay type: in vivo
# Settings: PRE Application, 1000 g/h, after 13 days
row,SMILES,"percentage damage caused to the plant, AMARE"
1,CCn1c(=O)c(C(=O)Nc2nnnn2C)cc2cnc(Cl)cc21 [Compound 2.002],5 (5=80-100%)
2,COc1ccc(-n2c(=O)c(C(=O)Nc3nnnn3C)nc3ccccc32)cc1 [Compound 5.009],5 (5=80-100%)
3,Cn1nnnc1NC(=O)c1nc2ccccc2n(-c2ccc(C(F)(F)F)cc2)c1=O [Compound 5.019],5 (5=80-100%)
4,Cn1nnnc1NC(=O)c1nc2ccccc2n(-c2ccc3ccccc3c2)c1=O [Compound 5.031],5 (5=80-100%)
5,Cn1nnnc1NC(=O)c1cc2cccnc2n(C)c1=O [Compound 1.001],2 (2=20-39%)
6,Cc1cccc(-n2c(=O)c(C(=O)Nc3nnnn3C)nc3ccccc32)c1 [Compound 5.011],5 (5=80-100%)

# System: Setaria faberi (SETFA)
# Experiment: Post-emergence glasshouse herbicide test
# Assay type: in vivo
# Settings: POST Application, 1000 g/h, after 13 days
# Summary of the method: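 This post-emergence glasshouse herbicide test used SETFA plants raised in pots of standard soil for 8 days under controlled conditions (24/16° C., 14 hours light, 65% humidity). An aqueous spray made from acetone/water (50:50) with 0.5% Tween 20 was applied. Plants were watered twice daily, and percentage plant damage was assessed 13 days later.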
row,SMILES,"percentage damage caused to the plant, SETFA"
1,CCn1c(=O)c(C(=O)Nc2nnnn2C)cc2cnc(Cl)cc21 [Compound 2.002],1 (1=0-19%)
2,COc1ccc(-n2c(=O)c(C(=O)Nc3nnnn3C)nc3ccccc32)cc1 [Compound 5.009],2 (2=20-39%)
3,Cn1nnnc1NC(=O)c1nc2ccccc2n(-c2ccc(C(F)(F)F)cc2)c1=O [Compound 5.019],5 (5=80-100%)
4,Cn1nnnc1NC(=O)c1nc2ccccc2n(-c2ccc3ccccc3c2)c1=O [Compound 5.031],1 (1=0-19%)
5,Cn1nnnc1NC(=O)c1cc2cccnc2n(C)c1=O [Compound 1.001],1 (1=0-19%)
6,Cc1cccc(-n2c(=O)c(C(=O)Nc3nnnn3C)nc3ccccc32)c1 [Compound 5.011],5 (5=80-100%)

# System: Solanum nigrum (SOLNI)
# Experiment: Post-emergence glasshouse herbicide test
# Assay type: in vivo
# Settings: POST Application, 1000 g/h, after 13 days
# Summary of the method: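 This glasshouse post-emergence herbicide test used Solanum nigrum plants sown in standard soil and cultivated for 8 days under controlled conditions (24/16° C. day/night, 14 hours light, 65% humidity). An aqueous spray from an acetone/water (50:50) solution with 0.5% Tween 20 was applied. Plants were watered twice daily, and damage to each plant was assessed as a percentage 13 days later.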
row,SMILES,"percentage damage caused to the plant, SOLNI"
1,CCn1c(=O)c(C(=O)Nc2nnnn2C)cc2cnc(Cl)cc21 [Compound 2.002],5 (5=80-100%)
2,COc1ccc(-n2c(=O)c(C(=O)Nc3nnnn3C)nc3ccccc32)cc1 [Compound 5.009],5 (5=80-100%)
3,Cn1nnnc1NC(=O)c1nc2ccccc2n(-c2ccc(C(F)(F)F)cc2)c1=O [Compound 5.019],5 (5=80-100%)
4,Cn1nnnc1NC(=O)c1nc2ccccc2n(-c2ccc3ccccc3c2)c1=O [Compound 5.031],5 (5=80-100%)
5,Cn1nnnc1NC(=O)c1cc2cccnc2n(C)c1=O [Compound 1.001],5 (5=80-100%)
6,Cc1cccc(-n2c(=O)c(C(=O)Nc3nnnn3C)nc3ccccc32)c1 [Compound 5.011],5 (5=80-100%)

# System: Alopecurus myosuroides (ALOMY)
# Experiment: Post-emergence glasshouse herbicide test
# Assay type: in vivo
# Settings: POST Application, 1000 g/h, after 13 days
# Summary of the method: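 In this glasshouse post-emergence test, ALOMY plants were cultivated in standard soil for 8 days under controlled conditions (24/16° C. day/night, 14 hours light, 65% humidity). They were then treated with a spray derived from an acetone/water (50:50) formulation with 0.5% Tween 20, grown on with watering twice daily, and rated for percentage damage after 13 days.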
row,SMILES,"percentage damage caused to the plant, ALOMY"
1,CCn1c(=O)c(C(=O)Nc2nnnn2C)cc2cnc(Cl)cc21 [Compound 2.002],1 (1=0-19%)
2,COc1ccc(-n2c(=O)c(C(=O)Nc3nnnn3C)nc3ccccc32)cc1 [Compound 5.009],1 (1=0-19%)
3,Cn1nnnc1NC(=O)c1nc2ccccc2n(-c2ccc(C(F)(F)F)cc2)c1=O [Compound 5.019],3 (3=40-59%)
4,Cn1nnnc1NC(=O)c1nc2ccccc2n(-c2ccc3ccccc3c2)c1=O [Compound 5.031],1 (1=0-19%)
5,Cn1nnnc1NC(=O)c1cc2cccnc2n(C)c1=O [Compound 1.001],1 (1=0-19%)
6,Cc1cccc(-n2c(=O)c(C(=O)Nc3nnnn3C)nc3ccccc32)c1 [Compound 5.011],2 (2=20-39%)

# System: Ipomoea hederacea (IPOHE)
# Experiment: Post-emergence glasshouse herbicide test
# Assay type: in vivo
# Settings: POST Application, 1000 g/h, after 13 days
row,SMILES,"percentage damage caused to the plant, IPOHE"
1,CCn1c(=O)c(C(=O)Nc2nnnn2C)cc2cnc(Cl)cc21 [Compound 2.002],5 (5=80-100%)
2,COc1ccc(-n2c(=O)c(C(=O)Nc3nnnn3C)nc3ccccc32)cc1 [Compound 5.009],3 (3=40-59%)
3,Cn1nnnc1NC(=O)c1nc2ccccc2n(-c2ccc(C(F)(F)F)cc2)c1=O [Compound 5.019],5 (5=80-100%)
4,Cn1nnnc1NC(=O)c1nc2ccccc2n(-c2ccc3ccccc3c2)c1=O [Compound 5.031],3 (3=40-59%)
5,Cn1nnnc1NC(=O)c1cc2cccnc2n(C)c1=O [Compound 1.001],2 (2=20-39%)
6,Cc1cccc(-n2c(=O)c(C(=O)Nc3nnnn3C)nc3ccccc32)c1 [Compound 5.011],5 (5=80-100%)

# System: Echinochloa crus-galli (ECHCG)
# Experiment: Post-emergence glasshouse herbicide test
# Assay type: in vivo
# Settings: POST Application, 1000 g/h, after 13 days
row,SMILES,"percentage damage caused to the plant, ECHCG"
1,CCn1c(=O)c(C(=O)Nc2nnnn2C)cc2cnc(Cl)cc21 [Compound 2.002],2 (2=20-39%)
2,COc1ccc(-n2c(=O)c(C(=O)Nc3nnnn3C)nc3ccccc32)cc1 [Compound 5.009],4 (4=60-79%)
3,Cn1nnnc1NC(=O)c1nc2ccccc2n(-c2ccc(C(F)(F)F)cc2)c1=O [Compound 5.019],5 (5=80-100%)
4,Cn1nnnc1NC(=O)c1nc2ccccc2n(-c2ccc3ccccc3c2)c1=O [Compound 5.031],1 (1=0-19%)
5,Cn1nnnc1NC(=O)c1cc2cccnc2n(C)c1=O [Compound 1.001],3 (3=40-59%)
6,Cc1cccc(-n2c(=O)c(C(=O)Nc3nnnn3C)nc3ccccc32)c1 [Compound 5.011],4 (4=60-79%)

# System: Amaranthus retoflexus (AMARE)
# Experiment: Post-emergence glasshouse herbicide test
# Assay type: in vivo
# Settings: POST Application, 1000 g/h, after 13 days
row,SMILES,"percentage damage caused to the plant, AMARE"
1,CCn1c(=O)c(C(=O)Nc2nnnn2C)cc2cnc(Cl)cc21 [Compound 2.002],5 (5=80-100%)
2,COc1ccc(-n2c(=O)c(C(=O)Nc3nnnn3C)nc3ccccc32)cc1 [Compound 5.009],5 (5=80-100%)
3,Cn1nnnc1NC(=O)c1nc2ccccc2n(-c2ccc(C(F)(F)F)cc2)c1=O [Compound 5.019],5 (5=80-100%)
4,Cn1nnnc1NC(=O)c1nc2ccccc2n(-c2ccc3ccccc3c2)c1=O [Compound 5.031],5 (5=80-100%)
5,Cn1nnnc1NC(=O)c1cc2cccnc2n(C)c1=O [Compound 1.001],3 (3=40-59%)
6,Cc1cccc(-n2c(=O)c(C(=O)Nc3nnnn3C)nc3ccccc32)c1 [Compound 5.011],5 (5=80-100%)
